This assay deals with T1, PRMT5-MEP50 enzyme complex (Homo sapiens, UniProt O14744).
T1 construct: purchased BPS Bioscience (USA) 51045
Description: In vitro PRMT5 enzyme activity assay (methylation of histone H4 arginine H4R3, ELISA absorbance at 450 nm). The class given is biochemical. The conditions noted are these: S-adenosylmethionine, histone H4 peptide, 2 hours at room temperature, 8 points 10 μM to 0.128 nM. How it is done: Method for Measuring Enzyme Activity
In vitro assay: PRMT5-MEP50 enzyme complex, cofactor S-adenosylmethionine (SAM) and histone H4 peptide were reacted in vitro, and methylation of arginine (H4R3) —which is the third amino acid of histone H4—was measured in order to measure the enzyme activity of PRMT5.
Reagents: PRMT5-MEP50 enzyme complex (Catalog No. 51045), blocking buffer (52100-B), histone methyltransferase reaction buffer 2 (4×HMT assay buffer 2, Catalog No. 52170), and primary antibody (primary antibody 4-3, Catalog No. 52150) were purchased from BPS Bioscience (USA). The histone H4 peptide (1-20 amino acids) was custom made by Komabiotech (Korea) and used. S-adenosylmethionine was purchased from NEB (New England Biolabs, USA, Catalog No. B9003S). Plates for coating histone H4 peptide, washing buffer and color development reagent were purchased from the following vendors: Plate (Immobilizer™-Amino Plate, NUNC, Denmark, Catalog No. 436023), carbonate-bicarbonate buffer (Sigma-Aldrich, USA, Catalog No. C3041), washing buffer (10×TBST, Biosesang, Korea, Catalog No. T2005), TMB ELISA substrate (Abcam, UK, Catalog No. ab210902), horseradish peroxidase (HRP)-conjugated antibody (Abcam, UK, Catalog No. ab6721).
Experimental procedure: The histone H4 peptide was diluted with carbonate-bicarbonate buffer and prepared to 100 μg/mL, and then dispensed onto the plate per 100 μL and reacted at 37° C. for 1 hour. PRMT5-MEP50 enzyme complex and S-adenosylmethionine were diluted with histone methyltransferase reaction buffer to prepare 5 μg/mL and 2 μM, respectively, and then 20 μL of PRMT5-MEP50 enzyme complex and 25 μL of S-adenosylmethionine were dispensed onto the plate prepared above. 5 μL of the compound diluted with 10% dimethyl sulfoxide solution was added thereto and reacted at room temperature for 2 hours (final volume=50 μL). The concentration of the compound was diluted 1:5 from 10 μM until the lowest concentration of 0.128 nM, and 8 points were used for the test. After preparing the primary antibody by diluting 1:2000 with blocking buffer, 100 μL was added to the plate and reacted at room temperature for 1 hour. After preparing horseradish peroxidase-conjugated antibody by diluting 1:10,000 with blocking buffer, 100 μL was added to the plate and reacted at room temperature for 1 hour. 100 μL of TMB substrate was added and reacted for 3 minutes at room temperature, and 100 μL of 1 N sulfuric acid was then added to terminate the reaction. Then, the absorbance at 450 nm was measured to calculate the IC50 value of the compound. (+++: 1 to 100 nM, ++: greater than 100 to 1,000 nM, +: greater than 1,000 to 10,000 nM)
For orientation: In an ELISA, binding on a coated surface is turned into a signal by an enzyme label.

T1 sequence (O14744 2-637 limits assumed): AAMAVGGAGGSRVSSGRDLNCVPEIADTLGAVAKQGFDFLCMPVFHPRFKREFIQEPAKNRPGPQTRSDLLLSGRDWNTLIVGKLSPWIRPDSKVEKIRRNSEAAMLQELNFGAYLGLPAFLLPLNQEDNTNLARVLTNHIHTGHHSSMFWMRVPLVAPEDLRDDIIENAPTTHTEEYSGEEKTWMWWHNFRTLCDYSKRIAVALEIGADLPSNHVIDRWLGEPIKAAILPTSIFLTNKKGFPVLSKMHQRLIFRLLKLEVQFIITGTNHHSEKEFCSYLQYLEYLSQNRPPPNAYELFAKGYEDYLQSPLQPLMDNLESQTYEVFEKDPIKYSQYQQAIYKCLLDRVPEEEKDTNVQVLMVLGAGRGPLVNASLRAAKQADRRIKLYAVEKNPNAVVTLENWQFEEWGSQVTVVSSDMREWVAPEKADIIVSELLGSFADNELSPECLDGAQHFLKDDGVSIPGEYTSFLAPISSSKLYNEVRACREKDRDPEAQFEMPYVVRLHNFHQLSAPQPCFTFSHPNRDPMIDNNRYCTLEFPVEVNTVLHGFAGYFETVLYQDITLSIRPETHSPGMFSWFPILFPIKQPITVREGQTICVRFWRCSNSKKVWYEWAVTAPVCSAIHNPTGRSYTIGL
T1 sequence (Q9BQA1 2-342 partner limits assumed): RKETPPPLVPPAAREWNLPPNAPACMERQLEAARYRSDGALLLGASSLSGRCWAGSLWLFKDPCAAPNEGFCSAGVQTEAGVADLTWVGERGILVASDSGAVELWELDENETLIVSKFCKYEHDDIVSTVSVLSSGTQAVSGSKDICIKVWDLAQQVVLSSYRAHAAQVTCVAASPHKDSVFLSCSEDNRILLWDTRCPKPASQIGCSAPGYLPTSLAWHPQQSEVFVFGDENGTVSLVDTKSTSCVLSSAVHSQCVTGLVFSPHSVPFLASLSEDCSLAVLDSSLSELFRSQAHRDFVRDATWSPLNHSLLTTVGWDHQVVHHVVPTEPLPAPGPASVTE

A word on the IC50: it is the midpoint of a concentration-inhibition curve. Low readings indicate greater potency in that assay, high ones weaker potency in that assay. On to `CC(=O)N1CCC(c2ccc3c(c2)CCN(C[C@H](O)CN2CCc4ccccc4C2)C3=O)CC1` [Example 67, 6-(1-acetyl-4-piperidyl)-2-[(2R)-3-(3,4-dihydro-1H-isoquinolin-2-yl)-2-hydroxy-propyl]-3,4-dihydroisoquinolin-1-one], for which the IC50 lay within 1000 to 10000 nM.

With `CC(=O)N1CC=C(c2ccc3c(c2)CCN(C[C@H](O)CN2CCc4ccccc4C2)C3=O)CC1` [Example 61, 6-(1-acetyl-3,6-dihydro-2H-pyridin-4-yl)-2-[(2R)-3-(3,4-dihydro-1H-isoquinolin-2-yl)-2-hydroxy-propyl]-3,4-dihydroisoquinolin-1-one], the IC50 lay in the range of 1 to 100 nM.

In turn, `O=C1c2ccc(-c3ccnc(F)c3)cc2CCN1C[C@H](O)CN1CCc2ccccc2C1` [Example 12, 2-[(2R)-3-(3,4-dihydro-1H-isoquinolin-2-yl)-2-hydroxy-propyl]-6-(2-fluoro-4-pyridyl)-3,4-dihydroisoquinolin-1-one] showed an IC50 of 1 to 100 nM.

Turning to `CC(=O)N1CCC(CNc2ccc3c(c2)CCN(C[C@H](O)CN2CCc4ccccc4C2)C3=O)CC1` [Example 24, 6-[(1-acetyl-4-piperidyl)methylamino]-2-[(2R)-3-(3,4-dihydro-1H-isoquinolin-2-yl)-2-hydroxy-propyl]-3,4-dihydroisoquinolin-1-one], the IC50 was in the range of 1 to 100 nM.

On to `CC(C)(C)C(=O)N1CCN(c2ccc3c(c2)CCN(C[C@H](O)CN2CCc4ccccc4C2)C3=O)CC1` [Example 71, 2-[(2R)-3-(3,4-dihydro-1H-isoquinolin-2-yl)-2-hydroxy-propyl]-6-[4-(2,2-dimethylpropanoyl)piperazin-1-yl]-3,4-dihydroisoquinolin-1-one], for which the IC50 fell in the range of 1 to 100 nM.

Take `CN1CCN(c2ccc3c(c2)CCN(C[C@H](O)CN2CCc4ccccc4C2)C3=O)CC1` [Example 17, 2-[(2R)-3-(3,4-dihydro-1H-isoquinolin-2-yl)-2-hydroxy-propyl]-6-(4-methylpiperazin-1-yl)-3,4-dihydroisoquinolin-1-one]: the IC50 is 1 to 100 nM.

Compound `CC(=O)N1CCN(c2ccc3c(c2)CCN(C(C)C(O)CN2CCc4ccccc4C2)C3=O)CC1` (stereo not shown) [Example 129, 6-(4-acetylpiperazin-1-yl)-2-[3-(3,4-dihydro-1H-isoquinolin-2-yl)-2-hydroxy-1-methyl-propyl]-3,4-dihydroisoquinolin-1-one] came in with an IC50 of 100 to 1000 nM.

On to `CC(C)(C)OC(=O)N1CCCN(c2ccc3c(c2)CCN(C[C@H](O)CN2CCc4ccccc4C2)C3=O)CC1` [Example 78, tert-butyl 4-[2-[(2R)-3-(3,4-dihydro-1H-isoquinolin-2-yl)-2-hydroxy-propyl]-1-oxo-3,4-dihydroisoquinolin-6-yl]-1,4-diazepane-1-carboxylate], for which the IC50 was in the range of 1 to 100 nM.

The compound `O=C1c2ccc(OCCN3CCOCC3)cc2CCN1C[C@H](O)CN1CCc2ccccc2C1` [Example 113, 2-[(2R)-3-(3,4-dihydro-1H-isoquinolin-2-yl)-2-hydroxy-propyl]-6-(2-morpholinoethoxy)-3,4-dihydroisoquinolin-1-one] displayed an IC50 of 1 to 100 nM.

Compound `O=C1c2ccc(N3CCOC3)cc2CCN1C[C@H](O)CN1CCc2ccccc2C1` [Example 39, 2-[(2R)-3-(3,4-dihydro-1H-isoquinolin-2-yl)-2-hydroxy-propyl]-6-oxazolidin-3-yl-3,4-dihydroisoquinolin-1-one] displayed an IC50 of 100 to 1000 nM.

The compound `O=C1c2ccc(N3CCC(N4CCOCC4)CC3)cc2CCN1C[C@H](O)CN1CCc2ccccc2C1` [Example 108, 2-[(2R)-3-(3,4-dihydro-1H-isoquinolin-2-yl)-2-hydroxy-propyl]-6-(4-morpholino-1-piperidyl)-3,4-dihydroisoquinolin-1-one] displayed an IC50 of 100 to 1000 nM.

Regarding `CN1CCCC(Oc2ccc3c(c2)CCN(C[C@H](O)CN2CCc4ccccc4C2)C3=O)C1` (stereo partly drawn) [Example 139, 2-[(2R)-3-(3,4-dihydro-1H-isoquinolin-2-yl)-2-hydroxypropyl]-6-[(1-methyl-3-piperidyl)oxy]-3,4-dihydroisoquinolin-1-one], the IC50 lay in the range of 1 to 100 nM.

`CC(=O)N1CCN(c2ccc3c(n2)CCN(C[C@H](O)CN2CCc4ccccc4C2)C3=O)CC1` [Example 88, 2-(4-acetylpiperazin-1-yl)-6-[(2R)-3-(3,4-dihydro-1H-isoquinolin-2-yl)-2-hydroxy-propyl]-7,8-dihydro-1,6-naphthyridin-5-one] displayed an IC50 of 1 to 100 nM.

Compound `CC(=O)N1CCN(Cc2ccc3c(c2)CCN(C[C@H](O)CN2CCc4ccccc4C2)C3=O)CC1` [Example 68, 6-[(4-acetylpiperazin-1-yl)methyl]-2-[(2R)-3-(3,4-dihydro-1H-isoquinolin-2-yl)-2-hydroxy-propyl]-3,4-dihydroisoquinolin-1-one] registered an IC50 of 1 to 100 nM.

With `N#CN1CCN(c2ccc3c(c2)CCN(C[C@H](O)CN2CCc4ccccc4C2)C3=O)CC1` [Example 101, 4-[2-[(2R)-3-(3,4-dihydro-1H-isoquinolin-2-yl)-2-hydroxy-propyl]-1-oxo-3,4-dihydroisoquinolin-6-yl]piperazine-1-carbonitrile], the IC50 fell in the range of 1 to 100 nM.

As for `CC(=O)N1CCC(Nc2ccc3c(c2)CCN(C[C@H](O)CN2CCc4ccccc4C2)C3=O)CC1` [Example 32, 6-[(1-acetyl-4-piperidyl)amino]-2-[(2R)-3-(3,4-dihydro-1H-isoquinolin-2-yl)-2-hydroxy-propyl]-3,4-dihydroisoquinolin-1-one], the IC50 is 1 to 100 nM.

`O=C1c2ccc(CN3CCCOCC3)cc2CCN1C[C@H](O)CN1CCc2ccccc2C1` [Example 54, 2-[(2R)-3-(3,4-dihydro-1H-isoquinolin-2-yl)-2-hydroxy-propyl]-6-(1,4-oxazepan-4-ylmethyl)-3,4-dihydroisoquinolin-1-one] came in with an IC50 of 1 to 100 nM.

`CC(C)(C)OC(=O)N1CCC(c2ccc3c(c2)CCN(C[C@H](O)CN2CCc4ccccc4C2)C3=O)CC1` [Example 63, tert-butyl 4-[2-[(2R)-3-(3,4-dihydro-1H-isoquinolin-2-yl)-2-hydroxy-propyl]-1-oxo-3,4-dihydroisoquinolin-6-yl]piperidine-1-carboxylate] came in with an IC50 of 100 to 1000 nM.

`O=C1c2ccc(N3CCCC3)cc2CCN1C[C@H](O)CN1CCc2ccccc2C1` [Example 2, 2-[(2R)-3-(3,4-dihydro-1H-isoquinolin-2-yl)-2-hydroxy-propyl]-6-pyrrolidin-1-yl-3,4-dihydroisoquinolin-1-one] came in with an IC50 of 100 to 1000 nM.

`O=C1c2ccc(N3CCOCC3)cc2C(F)(F)CN1C[C@H](O)CN1CCc2ccccc2C1` [Example 132, 2-[(2R)-3-(3,4-dihydro-1H-isoquinolin-2-yl)-2-hydroxy-propyl]-4,4-difluoro-6-morpholino-3H-isoquinolin-1-one] came in with an IC50 of 1000 to 10000 nM.

In turn, `O=C1c2ccc(N3CCN(C4CCOCC4)CC3)cc2CCN1C[C@H](O)CN1CCc2ccccc2C1` [Example 122, 2-[(2R)-3-(3,4-dihydro-1H-isoquinolin-2-yl)-2-hydroxy-propyl]-6-(4-tetrahydropyran-4-ylpiperazin-1-yl)-3,4-dihydroisoquinolin-1-one] came in with an IC50 of 100 to 1000 nM.

`O=C1c2ccc(N3CCC(O)CC3)cc2CCN1C[C@H](O)CN1CCc2ccccc2C1` [Example 37, 2-[(2R)-3-(3,4-dihydro-1H-isoquinolin-2-yl)-2-hydroxy-propyl]-6-(4-hydroxy-1-piperidyl)-3,4-dihydroisoquinolin-1-one] yielded an IC50 of 1 to 100 nM.

Values taken from patent US12331035B2, “Bicyclic compound and use thereof” (SK BIOPHARMACEUTICALS CO., LTD., priority 2019, dated 2025).
